30 molecules from patent publication US10752617B2 (GALDERMA RESEARCH & DEVELOPMENT, priority 2014, dated 2020) can be followed below.

The assay has as its target T1, GAL4-RORγ (GAL4 DBD fused to the ROR gamma ligand-binding domain) (Homo sapiens, UniProt P51449).
T1 construct: expressed in transfected cells; host or cells: HG5LN (HeLa line with GAL4-responsive luciferase reporter)
T1 sequence (P51449 269-508 limits assumed): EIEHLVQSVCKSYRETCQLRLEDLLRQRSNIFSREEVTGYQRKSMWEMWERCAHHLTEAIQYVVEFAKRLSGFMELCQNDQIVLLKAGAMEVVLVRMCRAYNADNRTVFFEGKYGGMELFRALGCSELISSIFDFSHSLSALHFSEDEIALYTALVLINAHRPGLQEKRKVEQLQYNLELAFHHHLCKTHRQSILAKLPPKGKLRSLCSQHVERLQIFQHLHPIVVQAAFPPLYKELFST
The assay can be described thus: GAL4-RORγ transactivation (luciferase reporter, HG5LN HeLa line). The note with it: HG5LN HeLa cells, 18 hours incubation, luciferase luminescence, read-out: IC50 hRORg. The format is cell-based. The source says:
In the tables described above, the median inhibitory concentrations IC50 for the compounds belonging to formula (I) according to the invention have been given according to the following models:
GAL4-RORγ Transactivation
The RORγ transactivation model was developed from the line HG5LN, which is a HeLa line that stably expresses a luciferase reporter gene controlled by a pentamer of the GAL4 recognition domain of yeast and of a β-globin promoter. The HG5LN line was stably transfected by the DNA-binding domain (DBD) of GAL4 fused to the ROR gamma ligand-binding domain (LBD). Molecules that inhibit the ROR gamma constitutive activity reduce the luciferase expression, thus leading to a reduction in the emitted luminescence.
The cells are seeded in 384-well plates (5000 cells in 45 μL/well of culture medium containing 10% fetal calf serum) and incubated for 4 hours at 37° C., 5% CO2. 5 μL of the test molecules (compounds described in the tables described above) are then added to each well and the plates are incubated for 18 hours at a temperature of 37° C. under 5% of CO2. 20 μL of luciferase substrate (Promega) are added to each well and the luminescence emitted is read by a microplate reader.
The luminescence units (“RLU”) are normalized by positive controls (“POS” containing a saturated concentration of N-(2,2,2-trifluoroethyl)-N-[4-[2,2,2-trifluoro-1-hydroxy-1-(trifluoromethyl)ethyl]phenyl])benzenesulfonamide and negative controls (“NEG” containing DMSO): % inhibition=((RLU−NEG)*100)/(POS−NEG). The IC50 values are calculated from a 4-parameter logistic model using the XLFit software (IDBS).

For the molecule `CCc1ccc(N(CC2CC2)S(=O)(=O)c2ccc3c(cnn3CC3CCOCC3)c2)cc1` [Compound 31, N-(cyclopropylmethyl)-N-(4-ethylphenyl)-1-((tetrahydro-2H-pyran-4-yl)methyl)-1H-indazole-5-sulfonamide], the half-maximal inhibitory concentration (IC50) (commonly the concentration that gives 50% inhibition) is over 1000 nM.

As to `CCCCc1ccc(N(CC(C)C)S(=O)(=O)c2ccc3c(cnn3CC3CCOCC3)c2)c(C)c1` [Compound 13, 1-(tetrahydropyran-4-ylmethyl)-1H-indazole-5-sulfonic acid (4-butyl-2-methylphenyl)isobutylamide], the IC50 was in the range of 100 to 1000 nM.

On to `CCc1ccc(N(CC(C)C)S(=O)(=O)c2ccc3c(cnn3C3CCN(C(C)=O)C3)c2)cc1` (stereo not drawn) [Compound 17, 1-(1-acetylpyrrolidin-3-yl)-1H-indazole-5-sulfonic acid (4-ethylphenyl)isobutylamide], for which the IC50 fell in the range of 100 to 1000 nM.

As for `CC(C)CN(c1ccc(C(C)C)cn1)S(=O)(=O)c1ccc2c(cnn2CC2CCOCC2)c1` [Compound 50, 1-(tetrahydropyran-4-ylmethyl)-1H-indazole-5-sulfonic acid isobutyl(5-isopropylpyridin-2-yl)amide], the IC50 is over 1000 nM.

Take `CCc1ccc(N([C@H](C)CC)S(=O)(=O)c2ccc3c(cnn3CC3CCOCC3)c2)cc1` [Compound 2, 1-(tetrahydropyran-4-ylmethyl)-1H-indazole-5-sulfonic acid ((R)-sec-butyl)(4-ethylphenyl)amide]: the IC50 lay within 100 to 1000 nM.

As to `CC(C)CN(c1ccc(C(F)(F)F)cc1)S(=O)(=O)c1ccc2c(cnn2CC2CCOCC2)c1` [Compound 59, 1-(tetrahydropyran-4-ylmethyl)-1H-indazole-5-sulfonic acid isobutyl(4-trifluoromethylphenyl)amide], the 50% inhibitory concentration (IC50) is over 1000 nM.

With `CCCCN(c1ccc(CC)cc1)S(=O)(=O)c1ccc2c(cnn2CC2CCOCC2)c1` [Compound 9, 1-(tetrahydropyran-4-ylmethyl)-1H-indazole-5-sulfonic acid butyl(4-ethylphenyl)amide], the concentration for half-maximal inhibition (IC50) was over 1000 nM.

As for `COc1cccc(N(CC(C)C)S(=O)(=O)c2ccc3c(cnn3CC3CCOCC3)c2)c1` [Compound 25, 1-(tetrahydropyran-4-ylmethyl)-1H-indazole-5-sulfonic acid (3-methoxyphenyl)isobutylamide], the IC50 is over 1000 nM.

For the molecule `CCc1ccc(N(CC(C)C)S(=O)(=O)c2ccc3c(cnn3Cc3ccccc3)c2)cc1` [Compound 23, 1-benzyl-N-(4-ethylphenyl)-N-isobutyl-1H-indazole-5-sulfonamide], the IC50 is over 1000 nM.

On to `Cc1ccc(N(CC(C)C)S(=O)(=O)c2ccc3c(cnn3CC3CCOCC3)c2)c(C#N)c1` [Compound 70, 1-(tetrahydropyran-4-ylmethyl)-1H-indazole-5-sulfonic acid (2-cyano-4-methylphenyl)isobutylamide], for which the IC50 was 100 to 1000 nM.

For `Cc1ccccc1N(CC(C)C)S(=O)(=O)c1ccc2c(cnn2CC2CCOCC2)c1` [Compound 48, 1-(tetrahydropyran-4-ylmethyl)-1H-indazole-5-sulfonic acid isobutyl-o-tolylamide], the concentration for half-maximal inhibition (IC50) was over 1000 nM.

With `CCc1ccc(N(CC(C)C)S(=O)(=O)c2ccc3c(cnn3Cc3c(C)noc3C)c2)cc1` [Compound 6, 1-((3,5-dimethylisoxazol-4-yl)methyl)-N-(4-ethylphenyl)-N-isobutyl-1H-indazole-5-sulfonamide], the IC50 was in the range of 100 to 1000 nM.

For the molecule `CCc1ccc(N(CC(C)C)S(=O)(=O)c2ccc3c(C=C4CCOCC4)n[nH]c3c2)cc1` [Compound 62, 3-(tetrahydropyran-4-ylidenemethyl)-1H-indazole-6-sulfonic acid (4-ethylphenyl)isobutylamide], the half-inhibitory concentration (IC50) is under 100 nM.

`CC(C)CN(c1ccc(OC(F)(F)F)cc1)S(=O)(=O)c1ccc2c(cnn2CC2CCOCC2)c1` [Compound 49, 1-(tetrahydropyran-4-ylmethyl)-1H-indazole-5-sulfonic acid (4-trifluoromethoxyphenyl)isobutylamide]: the IC50 is over 1000 nM.

With `CCc1ccc(N(CC2CCOC2)S(=O)(=O)c2ccc3c(cnn3CC3CCOCC3)c2)cc1` (stereo not drawn) [Compound 33, 1-(tetrahydropyran-4-ylmethyl)-1H-indazole-5-sulfonic acid (4-ethylphenyl)(tetrahydrofuran-3-ylmethyl)amide], the IC50 is over 1000 nM.

In the case of `Cc1cc(C)cc(N(CC(C)C)S(=O)(=O)c2ccc3c(cnn3CC3CCOCC3)c2)c1` [Compound 28, 1-(tetrahydropyran-4-ylmethyl)-1H-indazole-5-sulfonic acid (3,5-dimethylphenyl)isobutylamide], the IC50 is over 1000 nM.

Turning to `CCc1ccc(N(CC2CCOCC2)S(=O)(=O)c2ccc3c(cnn3CC3CCOCC3)c2)cc1` [Compound 5, 1-(tetrahydropyran-4-ylmethyl)-1H-indazole-5-sulfonic acid (4-ethylphenyl)(tetrahydropyran-4-ylmethyl)amide], the IC50 is over 1000 nM.

As to `Cc1ccc(N(CC(C)C)S(=O)(=O)c2ccc3c(cnn3CC3CCOCC3)c2)cc1` [Compound 47, 1-(tetrahydropyran-4-ylmethyl)-1H-indazole-5-sulfonic acid isobutyl-p-tolylamide], the 50% inhibitory concentration (IC50) is over 1000 nM.

For `CC(C)CN(c1ccccc1Cl)S(=O)(=O)c1ccc2c(cnn2CC2CCOCC2)c1` [Compound 45, 1-(tetrahydropyran-4-ylmethyl)-1H-indazole-5-sulfonic acid (2-chlorophenyl)isobutylamide], the IC50 is over 1000 nM.

Turning to `CCc1ccc(N(CC(C)C)S(=O)(=O)c2ccc3[nH]nc(N)c3c2)cc1` [Compound 34, 3-amino-1H-indazole-5-sulfonic acid (4-ethylphenyl)isobutylamide], the half-maximal inhibitory concentration (IC50) was over 1000 nM.

With `CCc1ccc(N(CC(C)C)S(=O)(=O)c2ccc3c(cnn3C3CCN(C(C)=O)C3)c2)cc1` (stereo not drawn) [Compound 40, 1-(1-acetylpyrrolidin-3-yl)-1H-indazole-5-sulfonic acid (4-ethylphenyl)isobutylamide], the concentration for half-maximal inhibition (IC50) is over 1000 nM.

Consider `CCc1ccc(N(CC2COC2)S(=O)(=O)c2ccc3c(cnn3CC3CCOCC3)c2)cc1` [Compound 16, 1-(tetrahydropyran-4-ylmethyl)-1H-indazole-5-sulfonic acid (4-ethylphenyl)oxetan-3-ylmethylamide], for which the IC50 is over 1000 nM.

Take `CCc1ccc(N(CC(C)C)S(=O)(=O)c2ccc3c(c2)c(OCC2CCOCC2)nn3CC2CCOCC2)cc1` [Compound 18, 3-(tetrahydropyran-4-ylmethoxy)-1-(tetrahydropyran-4-ylmethyl)-1H-indazole-5-sulfonic acid (4-ethylphenyl)isobutylamide]: the 50% inhibitory concentration (IC50) was over 1000 nM.

Take `Cc1ccc(N(CC(C)C)S(=O)(=O)c2ccc3c(cnn3CC3CCOCC3)c2)c(C)c1` [Compound 27, 1-(tetrahydropyran-4-ylmethyl)-1H-indazole-5-sulfonic acid (2,4-dimethylphenyl)isobutylamide]: the 50% inhibitory concentration (IC50) is 100 to 1000 nM.

As to `CCc1ccc(N(C2CC2)S(=O)(=O)c2ccc3c(cnn3CC3CCOCC3)c2)cc1` [Compound 3, 1-(tetrahydropyran-4-ylmethyl)-1H-indazole-5-sulfonic acid cyclopropyl(4-ethylphenyl)amide], the IC50 was over 1000 nM.

Consider `Cc1c(F)cccc1N(CC(C)C)S(=O)(=O)c1ccc2c(cnn2CC2CCOCC2)c1` [Compound 43, 1-(tetrahydropyran-4-ylmethyl)-2H-indazole-5-sulfonic acid (3-fluoro-2-methylphenyl)isobutylamide], for which the concentration for half-maximal inhibition (IC50) was 100 to 1000 nM.

Take `CCc1ccc(N(CC(C)C)S(=O)(=O)c2cc(C(=O)OC)c3c(cnn3CC3CCOCC3)c2)cc1` [Compound 74, methyl 5-[(4-ethylphenyl)isobutylsulfamoyl]-1-(tetrahydropyran-4-ylmethyl)-1H-indazole-7-carboxylate]: the IC50 was over 1000 nM.

Turning to `CCc1ccc(N(CCC(C)C)S(=O)(=O)c2ccc3c(cnn3CC3CCOCC3)c2)cc1` [Compound 35, N-(4-ethylphenyl)-N-isopentyl-1-((tetrahydro-2H-pyran-4-yl)methyl)-1H-indazole-5-sulfonamide], the 50% inhibitory concentration (IC50) is over 1000 nM.

Consider `CCc1ccc(N(C2CCC2)S(=O)(=O)c2ccc3c(cnn3CC3CCOCC3)c2)cc1` [Compound 41, 1-(tetrahydropyran-4-ylmethyl)-1H-indazole-5-sulfonic acid cyclobutyl(4-ethylphenyl)amide], for which the IC50 was over 1000 nM.

Regarding `Cc1cccc(N(CC(C)C)S(=O)(=O)c2ccc3c(cnn3CC3CCOCC3)c2)c1` [Compound 26, 1-(tetrahydropyran-4-ylmethyl)-1H-indazole-5-sulfonic acid (3-methylphenyl)isobutylamide], the IC50 was over 1000 nM.
